Results: patent US6573243B1, “Pompilid wasp-derived neuropeptides” (Suntory Limited, priority 1997, dated 2003)

Tested on: nerve-muscle junction of a lobster's walking leg
Test: Effect on excitatory postsynaptic potential (EPSP) in the neuromuscular specimen of a lobster's walking leg
Conditions: for concentration at which the peptide enhanced EPSP: sample dissolved in artificial seawater on the nerve-muscle junction side, excitatory nerve electrically stimulated; for biological activity of the synthetic peptide compared with the natural peptide: synthetic vs natural peptide
Description: The biological activity of the present peptides can be assayed according to the methods described in Japanese Patent Laid-Open No. 4-198161, in which excitatory postsynaptic potential (EPSP) is generated in the neuromuscular specimen of a lobster's walking leg, and the effect of the compound given to the nerve fibers on the EPSP is determined.
In general, substances inhibiting EPSP are believed to be glutamate antagonists or inhibitors for the release of glutamic acid, and the substances enhancing EPSP are believed to be glutamate-like agonists or accelerators for the release of glutamic acid.
The effect of the present peptides on excitatory postsynaptic potential (EPSP) was measured according to the method disclosed in Japanese Patent Laid-Open No. 4-198161. Thus, the shell of a lobster's walking leg was removed to expose the excitatory nerve and the inhibitory nerve, and a stimulating electrode was attached thereto. Then the nerve-muscle junction was exposed, and a recording electrode was attached thereto. The walking leg equipped with the electrodes was transferred to a container filled with an artificial seawater, and a partition was set up between the stimulating electrode part and the recording electrode part. The samples to be measured were dissolved into the artificial seawater in the recording electrode side (i.e., the side containing the nerve-muscle junction). Subsequently, the excitatory nerve was electrically stimulated and the EPSP, which was induced by glutamic acid released from the nerve end in response to the stimulation, was recorded.

| Substance | concentration at which the peptide enhanced EPSP | biological activity of the synthetic peptide compared with the natural peptide |
| --- | --- | --- |
| H-Arg-Ile-Lys-Ile-Gly-Leu-Phe-Asp-Gln-Leu-Ser-Arg-Leu-NH2 (H-RIKIGLFDQLSRL-NH2) [peptide (97)] | 200 nM | same biological activity as the natural peptides |
| H-Arg-Ile-Lys-Ile-Gly-Leu-Phe-Asp-Gln-Leu-Ser-Lys-Leu-NH2 (H-RIKIGLFDQLSKL-NH2) [peptide (1)] | 1000 nM | same biological activity as the natural peptides |
